Test system: Influenza type A (strain A/PR/8/34, ATCC VR-95)
Test: Influenza antiviral assay: inhibition of virus-induced cytopathic effects (CPE) in MDCK cells, XTT dye reduction
Format: cell-based
Conditions: Influenza A (H1N1) replication in MDCK cells, CPE reduction by XTT at 4 days post-infection; read-out: Influenza H1N1 affinity, EC50

`O=C(NCC1c2ccccc2COc2ccccc21)c1c(O)c(=O)ccn1CC1c2ccccc2COc2ccccc21` (stereo not shown) [Compound 108] gave an EC50 of 1 to 10 µM.
In the case of `O=C(NCC1c2ccccc2COc2ccccc21)c1c(O)c(=O)ccn1CC1c2ccccc2COc2ccccc21` (stereo not shown) [Compound 107], the EC50 is reported as over 100 µM.
`O=C(NCC1c2ccccc2COc2ccccc21)c1c(O)c(=O)ccn1CC1c2ccccc2COc2ccccc21` (stereo not shown) [Compound 50] gave an EC50 of 1 to 10 µM.
`O=C(NCC1c2ccccc2COc2ccccc21)c1c(O)c(=O)ccn1CC1c2ccccc2COc2ccccc21` (stereo not shown) [Compound 102] was tested, and the EC50 was over 100 µM.
Work on `O=C(NCC1c2ccccc2COc2ccccc21)c1c(O)c(=O)ccn1CC1c2ccccc2COc2ccccc21` (stereo not shown) [Compound 106] yielded an EC50 of over 100 µM.

Same assay, conditions: Influenza A virus, H1N1 / PR/8, MDCK, 96 h, Influenza A (H1N1) replication in MDCK cells, CPE reduction by XTT at 4 days post-infection; read-out: Influenza H1N1 affinity, EC50

`CNC(=O)c1c(O)c(=O)ccn1NC1CCOCc2ccccc21` (stereo not shown) [Compound 56] and `CNC(=O)c1c(O)c(=O)ccn1NC1CCN(C)c2ccccc21` (stereo not shown) [Compound 45] cannot be ordered by EC50: over 100 µM for the first, over 100 µM for the second.

`O=C(O)c1c(O)c(=O)ccn1NC1c2ccc(C(F)(F)F)cc2COc2ccccc21` (stereo not shown) [Compound 86] and `O=C(O)c1c(O)c(=O)ccn1NC1c2ccc(C(F)(F)F)cc2COc2cc(C(F)(F)F)ccc21` (stereo not shown) [Compound 110] cannot be ordered by EC50: over 100 µM for the first, over 100 µM for the second.

First: O=C(NCC(F)(F)F)c1c(O)c(=O)ccn1NC1c2ccccc2SCc2c1ccc(F)c2F (stereo not shown) [Compound 42, 1-((7,8-difluoro-6,11-dihydrodibenzo[b,e]thiepin-11-yl)amino)-3-hydroxy-4-oxo-N-(2,2,2-trifluoroethyl)-1,4-dihydropyridine-2-carboxamide]
Second: CNC(=O)c1c(O)c(=O)ccn1NC1c2ccccc2SCc2c1ccc(F)c2F (stereo not shown) [Compound 41]
The EC50 of the first is lower: 1 to 10 µM for the first, over 100 µM for the second.

`CNC(=O)c1c(O)c(=O)ccn1NC(c1ccccc1)c1ccccc1` [Compound 61] and `O=C(O)c1c(O)c(=O)ccn1NC(c1ccccc1)c1ccccc1` [Compound 67] cannot be ordered by EC50: over 100 µM for the first, over 100 µM for the second.

First: O=C(O)c1c(O)c(=O)ccn1NC1c2cc(OC(F)(F)F)ccc2SCc2c1ccc(F)c2F (stereo not shown) [Compound 116]
Second: O=C(O)c1c(O)c(=O)ccn1NC1c2ccc(F)c(F)c2CSc2c1ccc(F)c2F (stereo not shown) [Compound 93]
The EC50 of the first is higher: 10 to 100 µM for the first, 1 to 10 µM for the second. The second is the more potent here.

`O=C(NCCOCCO)c1c(O)c(=O)ccn1NC1CCCN(Cc2ccccc2)c2ccccc21` (stereo not shown) [Compound 17] and `CNC(=O)c1c(O)c(=O)ccn1NC1CCN(Cc2ccccc2)c2ccccc21` (stereo not shown) [Compound 44] cannot be ordered by EC50: over 100 µM for the first, over 100 µM for the second.

`O=C(O)c1c(O)c(=O)ccn1NC1c2ccccc2CSc2cc(Cl)c(Cl)cc21` (stereo not shown) [Compound 77] and `O=C(O)c1c(O)c(=O)ccn1NC1c2cc(Cl)c(Cl)cc2CSc2ccccc21` (stereo not shown) [Compound 117] fall in the same range of EC50: 10 to 100 µM for the first, 10 to 100 µM for the second.

`CNC(=O)c1c(O)c(=O)ccn1N(Cc1ccccc1)C1c2ccccc2COc2ccccc21` (stereo not shown) [Compound 72] and `COC(=O)c1c(O)c(=O)ccn1N(Cc1ccccc1)C1c2ccccc2COc2ccccc21` (stereo not shown) [Compound 26] cannot be ordered by EC50: over 100 µM for the first, over 100 µM for the second.

`O=C(O)c1c(O)c(=O)ccn1NC(c1ccc(F)c(F)c1)c1ccc(F)c(F)c1` [Compound 105] and `O=C(O)c1c(O)c(=O)ccn1NC(c1ccc2ccccc2c1)c1ccc2ccccc2c1` [Compound 100] cannot be ordered by EC50: over 100 µM for the first, over 100 µM for the second.

`O=c1ccn(NC2c3ccccc3COc3ccccc32)cc1O` (stereo not shown) [Compound 4] and `CN(C1c2ccccc2COc2ccccc21)n1ccc(=O)c(O)c1` (stereo not shown) [Compound 28] cannot be ordered by EC50: over 100 µM for the first, over 100 µM for the second.

Compared with `CNC(=O)c1c(O)c(=O)ccn1NC1CCCN(C)c2ccccc21` (stereo not shown) [Compound 46], `O=C(O)c1c(O)c(=O)ccn1NC1CCCOc2ccccc21` (stereo not shown) [Compound 1] is lower in EC50: over 100 µM for the first, 10 to 100 µM for the second.

First: O=C(O)c1c(O)c(=O)ccn1NC1c2ccccc2CSc2cc(F)c(F)cc21 (stereo not shown) [Compound 88]
Second: COc1ccc2c(c1)C(Nn1ccc(=O)c(O)c1C(=O)O)c1ccccc1CS2 (stereo not shown) [Compound 115]
The EC50 of the first is lower: 10 to 100 µM for the first, over 100 µM for the second.

`CC(C)NC(=O)c1c(O)c(=O)ccn1N(C)C1c2ccccc2COc2ccccc21` (stereo not shown) [Compound 10] and `CNC(=O)c1c(O)c(=O)ccn1N(C)C1c2ccccc2COc2ccccc21` (stereo not shown) [Compound 25] cannot be ordered by EC50: over 100 µM for the first, over 100 µM for the second.

`O=C(Nc1ccc(-c2ccccc2)cc1)c1c(O)c(=O)ccn1NC1c2ccccc2COc2ccccc21` (stereo not shown) [Compound 36] and `O=C(Nc1cccc(-c2ccccc2)c1)c1c(O)c(=O)ccn1NC1c2ccccc2COc2ccccc21` (stereo not shown) [Compound 30] cannot be ordered by EC50: over 100 µM for the first, over 100 µM for the second.

First: O=C(O)c1c(O)c(=O)ccn1NC1c2ccc(F)c(F)c2CSc2c(-c3ccccc3)cccc21 (stereo not shown) [Compound 121]
Second: O=C(O)c1c(O)c(=O)ccn1NC1c2ccc(-c3ccccc3)cc2SCc2c1ccc(F)c2F (stereo not shown) [Compound 114]
The EC50 of the first is higher: over 100 µM for the first, 10 to 100 µM for the second.

`CNC(=O)c1c(O)c(=O)ccn1CC1c2ccccc2COc2ccccc21` (stereo not shown) [Compound 52] and `O=C(Nc1ccccc1)c1c(O)c(=O)ccn1CC1c2ccccc2COc2ccccc21` (stereo not shown) [Compound 49] cannot be ordered by EC50: over 100 µM for the first, over 100 µM for the second.

Compared with `O=C(NCc1ccc2ccccc2c1)c1c(O)c(=O)ccn1NC1c2ccccc2COc2ccccc21` (stereo not shown) [Compound 22], `O=C(Nc1ccc2ccccc2c1)c1c(O)c(=O)ccn1NC1c2ccccc2COc2ccccc21` (stereo not shown) [Compound 47] is higher in EC50: 1 to 10 µM for the first, over 100 µM for the second.

First: O=C(O)c1cn(NC2c3ccccc3COc3ccccc32)c(C(=O)O)c(O)c1=O (stereo not shown) [Compound 109]
Second: O=C(O)c1cn(CC2c3ccccc3COc3ccccc32)c(C(=O)O)c(O)c1=O (stereo not shown) [Compound 73]
The EC50 of the first is lower: 10 to 100 µM for the first, over 100 µM for the second.

`O=C(O)c1c(O)c(=O)ccn1NC1c2ccccc2CSc2ccccc21` (stereo not shown) [Compound 59] and `O=C(O)c1c(O)c(=O)ccn1NC1c2ccccc2COc2ccccc21` (stereo not shown) [Compound 2, 1-((6,11-dihydrodibenzo[b,e]oxepin-11-yl)amino)-3-hydroxy-4-oxo-1,4-dihydropyridine-2-carboxylic acid] fall in the same range of EC50: 10 to 100 µM for the first, 10 to 100 µM for the second.

First: O=C(O)c1c(O)c(=O)ccn1NC1c2ccccc2OCc2c(F)cccc21 (stereo not shown) [Compound 66]
Second: CNC(=O)c1c(O)c(=O)ccn1NC1c2ccccc2OCc2c(F)cccc21 (stereo not shown) [Compound 74]
The EC50 of the first is lower: 10 to 100 µM for the first, over 100 µM for the second. The first is the more potent here.

Compared with `O=C(NOCc1ccccc1)c1c(O)c(=O)ccn1NC1c2ccccc2SCc2c1ccc(F)c2F` (stereo not shown) [Compound 130, N-(benzyloxy)-1-((7,8-difluoro-6,11-dihydrodibenzo[b,e]thiepin-11-yl)amino)-3-hydroxy-4-oxo-1,4-dihydropyridine-2-carboxamide], `O=C(O)c1c(O)c(=O)ccn1NC1c2ccccc2SCc2c1ccc(F)c2Br` (stereo not shown) [Compound 96] is lower in EC50: 1 to 10 µM for the first, 0.1 to 1 µM for the second. The second is the more potent here.

Compared with `O=C(O)c1c(O)c(=O)ccn1CC1c2ccccc2SCc2c1ccc(F)c2F` (stereo not shown) [Compound 118], `O=C(O)c1c(O)c(=O)ccn1NC1c2ccccc2SCc2c1ccc(Cl)c2Cl` (stereo not shown) [Compound 94] is lower in EC50: over 100 µM for the first, 0.1 to 1 µM for the second.

Compared with `COC(=O)c1c(O)c(=O)ccn1NC1CCCN(Cc2ccc(OC)cc2)c2ccccc21` (stereo not shown) [Compound 9], `O=C(O)c1c(O)c(=O)ccn1NC1c2ccccc2SCc2c1cccc2N1CCCC1=O` (stereo not shown) [Compound 128] is lower in EC50: over 100 µM for the first, 1 to 10 µM for the second. The second is the more potent here.

`CNC(=O)c1cn(NC2c3ccccc3COc3ccccc32)c(C(=O)NC)c(O)c1=O` (stereo not shown) [Compound 103] and `CCOC(=O)c1cn(NC2c3ccccc3COc3ccccc32)c(C(=O)OCC)c(O)c1=O` (stereo not shown) [Compound 104] cannot be ordered by EC50: over 100 µM for the first, over 100 µM for the second.

First: O=C(O)c1c(O)c(=O)ccn1NC1c2ccc(F)c(F)c2COc2c1ccc(F)c2F (stereo not shown) [Compound 80]
Second: O=C(O)c1c(O)c(=O)ccn1NC1c2ccc(-c3ccc(F)cc3)cc2SCc2c1ccc(F)c2F (stereo not shown) [Compound 123]
The EC50 of the first is lower: 1 to 10 µM for the first, 10 to 100 µM for the second. The first is the more potent here.

Compared with `O=C(NCc1ccccc1)c1c(O)c(=O)ccn1CC1c2ccccc2COc2ccccc21` (stereo not shown) [Compound 51], `CN(Cc1ccccc1)C(=O)c1c(O)c(=O)ccn1NC1c2ccccc2COc2ccccc21` (stereo not shown) [Compound 6] is lower in EC50: over 100 µM for the first, 1 to 10 µM for the second.

`O=C(Nc1cccc2ccccc12)c1c(O)c(=O)ccn1NC1c2ccccc2COc2ccccc21` (stereo not shown) [Compound 21] and `O=C(NCc1cccc2ccccc12)c1c(O)c(=O)ccn1NC1c2ccccc2COc2ccccc21` (stereo not shown) [Compound 24] cannot be ordered by EC50: over 100 µM for the first, over 100 µM for the second.

First: O=C(O)c1c(O)c(=O)ccn1NC(c1ccccc1)c1ccc2ccccc2c1 (stereo not shown) [Compound 82]
Second: O=C(O)c1c(O)c(=O)ccn1NC(c1cccc2ccccc12)c1cccc2ccccc12 [Compound 68]
The EC50 of the first is lower: 10 to 100 µM for the first, over 100 µM for the second.

`O=C(O)c1c(O)c(=O)ccn1NC1c2cc(Cl)ccc2COc2ccc(Cl)cc21` (stereo not shown) [Compound 58, 1-((2,9-dichloro-6,11-dihydrodibenzo[b,e]oxepin-11-yl)amino)-3-hydroxy-4-oxo-1,4-dihydropyridine-2-carboxylic acid] and `O=C(O)c1c(O)c(=O)ccn1NC1c2ccccc2COc2cc(Cl)c(Cl)cc21` (stereo not shown) [Compound 60] fall in the same range of EC50: 10 to 100 µM for the first, 10 to 100 µM for the second.

`O=C(NCc1cccc(O)c1)c1c(O)c(=O)ccn1NC1c2ccccc2COc2ccccc21` (stereo not shown) [Compound 29] and `O=C(NCc1ccc(O)cc1)c1c(O)c(=O)ccn1NC1c2ccccc2COc2ccccc21` (stereo not shown) [Compound 32] cannot be ordered by EC50: over 100 µM for the first, over 100 µM for the second.

First: O=C(Nc1ccc(O)cc1)c1c(O)c(=O)ccn1NC1c2ccccc2COc2ccccc21 (stereo not shown) [Compound 20]
Second: O=C(Nc1cccc(C(F)(F)F)c1)c1c(O)c(=O)ccn1NC1c2ccccc2COc2ccccc21 (stereo not shown) [Compound 13, 1-((6,11-dihydrodibenzo[b,e]oxepin-11-yl)amino)-3-hydroxy-4-oxo-N-(3-(trifluoromethyl)phenyl)-1,4-dihydropyridine-2-carboxamide]
The EC50 of the first is higher: over 100 µM for the first, 1 to 10 µM for the second.

`O=C(NCc1ccc(C(F)(F)F)cc1)c1c(O)c(=O)ccn1NC1c2ccccc2COc2ccccc21` (stereo not shown) [Compound 31] and `O=C(NCc1cccc(-c2ccccc2)c1)c1c(O)c(=O)ccn1NC1c2ccccc2COc2ccccc21` (stereo not shown) [Compound 33] cannot be ordered by EC50: over 100 µM for the first, over 100 µM for the second.

`O=C(O)c1c(O)c(=O)ccn1NC1c2ccccc2CSc2c1ccc(Cl)c2Cl` (stereo not shown) [Compound 87] and `O=C(O)c1c(O)c(=O)ccn1NC1c2ccccc2OCc2c1ccc(Cl)c2Cl` (stereo not shown) [Compound 99] fall in the same range of EC50: 1 to 10 µM for the first, 1 to 10 µM for the second.

`O=c1ccn(NC2CCOCc3ccccc32)cc1O` (stereo not shown) [Compound 12] and `O=c1ccn(N(Cc2ccccc2)C2c3ccccc3COc3ccccc32)cc1O` (stereo not shown) [Compound 27] cannot be ordered by EC50: over 100 µM for the first, over 100 µM for the second.

From patent US12565488B2, “Inhibitors of influenza virus replication” (COCRYSTAL PHARMA, INC., priority 2018, dated 2026)
